The results in this text go back to ChEMBL document CHEMBL1132082, “Nonsteroidal androgen receptor agonists based on 4-(trifluoromethyl)-2H-pyrano[3,2-g]quinolin-2-one” (Bioorg Med Chem Lett, 1999).

pIC50: −log10 of the molar value.

Common to all, as to assay type: functional
The target in test [1] is T1, Mineralocorticoid receptor (Homo sapiens, UniProt P08235).
T1 sequence (P08235 whole entry): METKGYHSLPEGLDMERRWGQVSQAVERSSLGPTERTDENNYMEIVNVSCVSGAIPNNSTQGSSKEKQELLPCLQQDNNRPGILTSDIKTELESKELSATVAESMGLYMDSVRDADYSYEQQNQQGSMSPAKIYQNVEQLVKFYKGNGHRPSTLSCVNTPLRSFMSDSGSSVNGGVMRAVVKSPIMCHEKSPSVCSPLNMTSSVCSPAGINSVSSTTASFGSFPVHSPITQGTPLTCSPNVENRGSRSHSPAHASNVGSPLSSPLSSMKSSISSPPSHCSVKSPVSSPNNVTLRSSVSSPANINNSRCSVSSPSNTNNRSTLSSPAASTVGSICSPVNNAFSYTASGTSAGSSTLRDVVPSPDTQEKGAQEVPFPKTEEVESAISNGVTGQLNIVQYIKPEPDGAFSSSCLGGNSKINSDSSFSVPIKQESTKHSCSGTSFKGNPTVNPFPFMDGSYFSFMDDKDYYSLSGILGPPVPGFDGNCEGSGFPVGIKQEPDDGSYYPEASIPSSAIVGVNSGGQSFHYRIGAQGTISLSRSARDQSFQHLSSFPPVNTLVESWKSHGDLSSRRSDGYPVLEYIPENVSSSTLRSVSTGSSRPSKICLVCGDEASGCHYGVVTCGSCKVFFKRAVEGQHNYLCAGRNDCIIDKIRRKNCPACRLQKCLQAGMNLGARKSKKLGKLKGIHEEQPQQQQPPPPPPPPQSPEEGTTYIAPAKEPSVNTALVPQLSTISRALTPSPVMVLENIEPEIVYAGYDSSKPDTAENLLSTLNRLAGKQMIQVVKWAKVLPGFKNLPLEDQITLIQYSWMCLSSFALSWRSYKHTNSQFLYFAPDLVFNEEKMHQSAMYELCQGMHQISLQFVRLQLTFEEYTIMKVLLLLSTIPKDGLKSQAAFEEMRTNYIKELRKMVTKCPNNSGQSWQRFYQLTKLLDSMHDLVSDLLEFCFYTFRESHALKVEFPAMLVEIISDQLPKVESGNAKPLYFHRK
In words: In vitro antagonistic activity against human mineralocorticoid receptor (hMR); not active.

The target of test [2] is T2, Glucocorticoid receptor (Homo sapiens, UniProt P04150).
T2 sequence (P04150 whole entry): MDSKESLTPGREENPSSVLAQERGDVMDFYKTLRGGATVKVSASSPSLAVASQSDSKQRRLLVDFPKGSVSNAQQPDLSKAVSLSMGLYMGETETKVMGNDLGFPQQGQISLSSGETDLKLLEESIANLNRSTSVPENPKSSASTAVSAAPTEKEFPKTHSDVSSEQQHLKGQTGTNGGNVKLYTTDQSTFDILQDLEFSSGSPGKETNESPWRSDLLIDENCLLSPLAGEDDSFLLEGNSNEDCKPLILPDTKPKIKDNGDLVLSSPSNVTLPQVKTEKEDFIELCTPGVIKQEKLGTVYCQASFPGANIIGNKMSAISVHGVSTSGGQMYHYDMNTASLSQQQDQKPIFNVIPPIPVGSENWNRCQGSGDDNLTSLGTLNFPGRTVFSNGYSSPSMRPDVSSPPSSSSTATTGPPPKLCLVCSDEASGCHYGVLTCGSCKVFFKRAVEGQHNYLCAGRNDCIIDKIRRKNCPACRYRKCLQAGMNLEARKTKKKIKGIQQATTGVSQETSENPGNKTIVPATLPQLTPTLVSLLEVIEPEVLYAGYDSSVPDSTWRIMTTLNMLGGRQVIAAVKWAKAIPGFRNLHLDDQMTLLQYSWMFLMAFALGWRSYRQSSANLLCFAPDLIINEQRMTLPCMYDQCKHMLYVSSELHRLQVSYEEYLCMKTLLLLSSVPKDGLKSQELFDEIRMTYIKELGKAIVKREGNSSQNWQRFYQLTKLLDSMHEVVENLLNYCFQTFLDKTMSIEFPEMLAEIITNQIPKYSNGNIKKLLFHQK
In words: In vitro antagonistic activity against human glucocorticoid receptor (hGR); not active.

In test [3] the target is T3, Progesterone receptor (Homo sapiens) (UniProt P06401).
T3 sequence (whole entry): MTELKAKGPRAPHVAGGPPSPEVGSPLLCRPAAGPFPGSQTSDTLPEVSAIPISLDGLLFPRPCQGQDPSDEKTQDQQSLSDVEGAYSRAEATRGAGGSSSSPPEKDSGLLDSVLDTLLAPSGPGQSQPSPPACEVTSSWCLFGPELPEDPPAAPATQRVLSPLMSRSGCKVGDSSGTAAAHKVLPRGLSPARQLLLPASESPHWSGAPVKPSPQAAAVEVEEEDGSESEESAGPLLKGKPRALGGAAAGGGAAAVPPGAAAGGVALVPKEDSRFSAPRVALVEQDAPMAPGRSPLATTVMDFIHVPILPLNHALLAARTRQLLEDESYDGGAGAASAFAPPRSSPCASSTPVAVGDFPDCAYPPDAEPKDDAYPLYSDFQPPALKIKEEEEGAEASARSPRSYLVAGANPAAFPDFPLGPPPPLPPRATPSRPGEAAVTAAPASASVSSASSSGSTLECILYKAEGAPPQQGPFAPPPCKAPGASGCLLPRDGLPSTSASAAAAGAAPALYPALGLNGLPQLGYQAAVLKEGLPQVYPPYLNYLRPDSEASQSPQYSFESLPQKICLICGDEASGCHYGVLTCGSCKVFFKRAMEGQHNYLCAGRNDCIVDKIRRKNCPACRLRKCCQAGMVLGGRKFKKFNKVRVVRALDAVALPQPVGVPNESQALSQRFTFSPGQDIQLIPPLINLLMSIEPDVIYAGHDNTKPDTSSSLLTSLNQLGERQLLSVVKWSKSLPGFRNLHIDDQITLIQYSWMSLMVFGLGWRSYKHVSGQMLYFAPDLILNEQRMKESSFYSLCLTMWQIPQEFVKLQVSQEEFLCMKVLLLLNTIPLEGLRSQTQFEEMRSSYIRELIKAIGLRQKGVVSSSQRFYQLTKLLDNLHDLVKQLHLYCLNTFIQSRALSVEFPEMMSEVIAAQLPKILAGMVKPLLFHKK
The test can be described thus: In vitro antagonistic activity against human progesterone receptor (hPR).

For test [4], the target named is Estrogen receptor (Homo sapiens, UniProt Q92731+P03372). In words: In vitro antagonistic activity against human estrogen receptor (hER).

Turning to `O=c1cc(C(F)(F)F)c2cc3c(cc2o1)NCCC3C(F)(F)F` (stereo not given), the pIC50 in test [1] and in test [2] was < 5.00 throughout. The Efficacy in test [3] was 68%; in test [4], < 20%.

Take `CCC1CCNc2cc3oc(=O)cc(C(F)(F)F)c3cc21` (stereo not given): the pIC50 in test [1] and in test [2] was < 5.00 throughout. The values for the Efficacy in test [3] and in test [4] were 91% and < 20%, respectively.

`CCC1Nc2cc3oc(=O)cc(C(F)(F)F)c3cc2CC1C` (stereo not given): the pIC50 in test [1] and in test [2] was < 5.00 each time. For the same compound, the values for the Efficacy in test [3] and in test [4] were 88% and < 20%, respectively.

In the case of `CC1CCNc2cc3oc(=O)cc(C(F)(F)F)c3cc21` (stereo not given), the negative-log IC50 (pIC50) in test [1] and in test [2] was < 5.00 each time. For the same compound, the Efficacy in test [3] was 83%; in test [4], < 20%.

On to `CCCC1CCNc2cc3oc(=O)cc(C(F)(F)F)c3cc21` (stereo not given), for which the negative logarithm of the IC50 (pIC50) in test [1] and in test [2] was < 5.00 throughout. The results for the Efficacy in test [3] and in test [4] were 89% and < 20%, respectively.

In general, pIC50 refers to the IC50 on a negative log10 scale, so that one unit is a factor of ten. Read a low pIC50 as a high IC50.
